Calls of active or inactive are those of the source. The calls are words filed in the database; no cut-off is given here.
Assays:
Mus musculus [1] = assay: Anti-inflammatory activity against DSS-induced acute ulcerative colitis in C57BL/6 mouse model assessed as decrease in IL-6 mRNA expression level in colon at 20 to 80 mg/kg, po QD for 6 days by RT-qPCR analysis; type: functional, organism-based; conditions: dose 20-80 mg/kg, time 6.0 day
[2] = Oral bioavailability in Sprague-Dawley rat at 15 mg/kg and measured upto 48 hrs by LC-MS/MS analysis; type: ADME, organism-based; conditions: in vivo
[3] = Clearance in Sprague-Dawley rat at 5 mg/kg, iv and measured upto 48 hrs by LC-MS/MS analysis; type: ADME, organism-based; conditions: in vivo
Mus musculus [4] = assay: Anti-inflammatory activity against DSS-induced acute ulcerative colitis in C57BL/6 mouse model assessed as decrease in IL-1beta mRNA expression level in colon at 20 to 80 mg/kg, po QD for 6 days by RT-qPCR analysis; type: functional, organism-based; conditions: dose 20-80 mg/kg, time 6.0 day
[5] = Drug distribution in colon of DSS-induced acute ulcerative colitis in C57BL/6 mouse model at 40 mg/kg,po and measured after 0.5 hrs by LC-MS/MS analysis; type: ADME, organism-based; conditions: in vivo
[6] = Acute toxicity in BALB/c mouse assessed as tissue damage in kidney at 600 mg/kg,po and measured after 14 days by hematoxylin and eosin staining based microscopy; type: organism-based; conditions: in vivo, 336 h, time 14 day
[7] = Metabolic stability in human liver microsomes assessed as half life at 3 uM incubated upto 90 mins in presence of NADPH by LC-MS/MS analysis; type: ADME, Microsome
Mus musculus [8] = assay: Anti-inflammatory activity against DSS-induced acute ulcerative colitis in C57BL/6 mouse model assessed as decrease in body weight loss at 40 mg/kg, po QD for 6 days (Rvb= -13.4%); type: functional; set-up: scale not given: the % may be the effect or the level left; conditions: time 6 day
[9] = Drug distribution in colon of DSS-induced acute ulcerative colitis in C57BL/6 mouse model at 40 mg/kg,po and measured after 2 hrs by LC-MS/MS analysis; type: ADME, organism-based; conditions: in vivo
Mus musculus [10] = assay: Anti-inflammatory activity against DSS-induced acute ulcerative colitis in C57BL/6 mouse model assessed as increase in colon length at 80 mg/kg, po QD for 6 days (Rvb= 5.3cm); type: functional; conditions: time 6 day
[11] = Acute toxicity in BALB/c mouse assessed as tissue damage in liver at 600 mg/kg,po and measured after 14 days by hematoxylin and eosin staining based microscopy; type: organism-based; conditions: in vivo, 336 h, time 14 day
[12] = Apparent volume of distribution during terminal phase in Sprague-Dawley rat at 5 mg/kg, iv and measured upto 48 hrs by LC-MS/MS analysis; type: ADME, organism-based; conditions: in vivo
[13] = Acute toxicity in BALB/c mouse assessed as changes in hematocrit level in blood at 600 mg/kg,po and measured after 14 days by hematology test; type: organism-based; conditions: in vivo, 336 h, time 14 day
[14] = AUCt in Sprague-Dawley rat at 5 mg/kg, iv and measured upto 48 hrs by LC-MS/MS analysis; type: ADME, organism-based; set-up: dose 5 mg/kg, time < 48 hrs, route iv; conditions: in vivo
Mus musculus [15] = assay: Anti-inflammatory activity against DSS-induced acute ulcerative colitis in C57BL/6 mouse model assessed as decrease in IL-1beta protein level in colon at 20 to 80 mg/kg, po QD for 6 days by ELISA; type: functional, organism-based; conditions: dose 20-80 mg/kg, time 6.0 day
[16] = Acute toxicity in BALB/c mouse assessed as changes in ALB level in serum at 600 mg/kg,po and measured after 14 days by Biochemistry analysis; type: organism-based; conditions: in vivo, 336 h, time 14 day
[17] = Acute toxicity in BALB/c mouse assessed as changes in RBC level in blood at 600 mg/kg,po and measured after 14 days by hematology test; type: organism-based, Erythrocyte; conditions: in vivo, 336 h, time 14 day
[18] = Acute toxicity in po dosed BALB/c mouse assessed as maximum tolerate dose; type: organism-based; conditions: in vivo
[19] = Half life in Sprague-Dawley rat at 15 mg/kg, po and measured upto 48 hrs by LC-MS/MS analysis; type: ADME, organism-based; conditions: in vivo
Mus musculus [20] = assay: Anti-inflammatory activity against DSS-induced acute ulcerative colitis in C57BL/6 mouse model assessed as decrease in IL-6 mRNA expression level in colon at 40 mg/kg, po QD for 6 days by RT-PCR analysis; type: functional, organism-based; conditions: time 6.0 day
[21] = Acute toxicity in BALB/c mouse assessed as changes in AST level in serum at 600 mg/kg,po and measured after 14 days by Biochemistry analysis; type: organism-based; conditions: in vivo, 336 h, time 14 day
Mus musculus [22] = assay: Anti-inflammatory activity against DSS-induced acute ulcerative colitis in C57BL/6 mouse model assessed as decrease in DAI score at 20 to 80 mg/kg, po QD for 6 days; type: functional, organism-based; conditions: dose 20-80 mg/kg, time 6.0 day
[23] = Half life in Sprague-Dawley rat at 5 mg/kg, iv and measured upto 48 hrs by LC-MS/MS analysis; type: ADME, organism-based; conditions: in vivo
[24] = Acute toxicity in BALB/c mouse assessed as changes in CK level in serum at 600 mg/kg,po and measured after 14 days by Biochemistry analysis; type: organism-based; conditions: in vivo, 336 h, time 14 day
Mus musculus [25] = assay: Anti-inflammatory activity against DSS-induced acute ulcerative colitis in C57BL/6 mouse model assessed as decrease in IL-17 production in colon at 40 mg/kg, po QD for 6 days by ELISA; type: functional; set-up: scale not given: the % may be the effect or the level left; conditions: time 6 day
[26] = Acute toxicity in BALB/c mouse assessed as changes in urea level in serum at 600 mg/kg,po and measured after 14 days by Biochemistry analysis; type: organism-based; conditions: in vivo, 336 h, time 14 day
[27] = Acute toxicity in BALB/c mouse assessed as changes in LDH level in serum at 600 mg/kg,po and measured after 14 days by Biochemistry analysis; type: organism-based; conditions: in vivo, 336 h, time 14 day
[28] = Acute toxicity in BALB/c mouse assessed as changes in WBC level in blood at 600 mg/kg,po and measured after 14 days by hematology test; type: organism-based; conditions: in vivo, 336 h, time 14 day
[29] = Acute toxicity in BALB/c mouse assessed as body weight loss at 600 mg/kg,po and measured for 14 days; type: organism-based; conditions: in vivo, 336 h, time 14 day
Mus musculus [30] = assay: Anti-inflammatory activity against DSS-induced acute ulcerative colitis in C57BL/6 mouse model assessed as decrease in IL-6 protein level in colon at 20 to 80 mg/kg, po QD for 6 days by ELISA; type: functional, organism-based; conditions: dose 20-80 mg/kg, time 6.0 day
[31] = Cmax in Sprague-Dawley rat at 15 mg/kg, po and measured upto 48 hrs by LC-MS/MS analysis; type: ADME, organism-based; set-up: dose 15 mg/kg, time < 48 hrs, route po; conditions: in vivo
[32] = Metabolic stability in mouse liver microsomes assessed as intrinsic clearance at 3 uM incubated upto 90 mins in presence of NADPH by LC-MS/MS analysis; type: ADME, Microsome; conditions: read-out: CLH
Mus musculus [33] = assay: Anti-inflammatory activity against DSS-induced acute ulcerative colitis in C57BL/6 mouse model assessed as decrease in DAI score at 40 mg/kg, po QD for 6 days; type: functional, organism-based; conditions: time 6.0 day
[34] = Apparent volume of distribution during terminal phase in Sprague-Dawley rat at 15 mg/kg, po and measured upto 48 hrs by LC-MS/MS analysis; type: ADME, organism-based; conditions: in vivo, read-out: Vz/F
[35] = Cmax in Sprague-Dawley rat at 5 mg/kg, iv and measured upto 48 hrs by LC-MS/MS analysis; type: ADME, organism-based; set-up: time < 48 hrs, dose 5 mg/kg, route iv; conditions: in vivo
Mus musculus [36] = assay: Anti-inflammatory activity against DSS-induced acute ulcerative colitis in C57BL/6 mouse model assessed as decrease in IL-1beta production in colon at 40 mg/kg, po QD for 6 days by ELISA; type: functional; set-up: scale not given: the % may be the effect or the level left; conditions: time 6 day
Mus musculus [37] = assay: Anti-inflammatory activity against DSS-induced acute ulcerative colitis in C57BL/6 mouse model assessed as decrease in IL-1beta mRNA expression level in colon at 40 mg/kg, po QD for 6 days by RT-PCR analysis; type: functional, organism-based; conditions: time 6.0 day

Nc1nc(-c2cn(Cc3c(F)cccc3Cl)c3ncccc23)ncc1C1CC1
Activity (Mus musculus [1]): Dose-Dependent Effect
bioavailability [2]: 21.7%
clearance [3]: 5 mL/min/kg
Activity (Mus musculus [4]): Dose-Dependent Effect
Drug uptake [5]: Active
Activity [6]: Non-Toxic
half-life at 3 µM [7]: 0.315 h
Activity (Mus musculus [8]): -4.2%
Drug uptake [9]: Active
Activity (Mus musculus [10]): 7.5 cm
Activity [11]: Non-Toxic
Vz/F [12]: 1.05 L/kg
Activity [13]: Non-Toxic
AUC(0-t) at 48 h [14]: 17900 ng·h/mL
Activity (Mus musculus [15]): Dose-Dependent Effect
Activity [16]: Non-Toxic
Activity [17]: Non-Toxic
MTD [18]: 600 mg/kg
half-life [19]: 1.6 h
Activity (Mus musculus [20]): Active
Activity [21]: Non-Toxic
Activity (Mus musculus [22]): Dose-Dependent Effect
half-life [23]: 2.6 h
Activity [24]: Non-Toxic
Activity (Mus musculus [25]): 57.35%
Activity [26]: Non-Toxic
Activity [27]: Non-Toxic
Activity [28]: Non-Toxic
Activity [29]: Non-Toxic
Activity (Mus musculus [30]): Dose-Dependent Effect
Cmax [31]: 2680 ng/mL
CLint scaled at 3 µM [32]: 581 mL/min/kg
Activity (Mus musculus [33]): Active
Vd/F [34]: 2.95 L/kg
Cmax [35]: 12300 ng/mL
Activity (Mus musculus [36]): 84.32%
Activity (Mus musculus [37]): Active
